Reference: patent publication US7078434B1, “Use of Ginkgo extract” (Societe de Conseils de Recherches et d'Applications …, priority 1999, dated 2006)
“Also recorded” adds a separate entry of the source.

Experiments:
[1] = test system: peripheral-type benzodiazepine receptor (PBR); assay: PBR ligand binding capacity of treated MDA-231 cells ([3H]PK 11195 saturation binding, Scatchard analysis); type: cell-based, human; details: % of control values
Text: (§1) Cell Culture and Treatments. […] Radioligand Binding Assays. […] RNA (Northern) Analysis. […] Nucleic Acid Arrays. […] BrdU Cell Proliferation Assays. […] Analysis of oxidative stress. […] Biological Evaluation In Vivo. […] Immunocytochemistry of MDA-231 tumors. […] Statistical Analysis. […] (FIG. 5).

[2] = test system: MDA-231 xenografts; assay: MDA-231 human breast cancer xenograft model in nude mice
Experimental: After the end of the treatment the animals were kept for 30 more days and then the animals were sacrificed on day 60. Data shown are means±S.E.M. (n=10).
Biological Evaluation In Vivo. […] Twice weekly tumor sizes and body weights were recorded for all animals for the 30 days of treatment as well for 30 days after the end of the treatment. At that time the animals were sacrificed and the tumors were removed and processed for immunohistochemistry. Animal care was in accordance with institutional guidelines. […] Statistical Analysis.

[3] = test system: MCF-7 cells; assay: BrdU cell proliferation assay, MCF-7; type: cell-based, human; details: 48 hours, 20 or 200 μg/ml EGB 761® or 2 or 20 μg/ml GKB; compared with MDA-231
Text: as §1

[4] = test system: MDA-231 cells; assay: BrdU cell proliferation assay, MDA-231
Experimental: 4 h prior to the end of incubation, bromodeoxyuridine (BrdU) was added to each well. Incorporation of BrdU was measured at 450 nm (reference=700 nm). Data points represent the mean±S.D. of four independent experiments carried out in quadruplicate.
4 h prior to the end of incubation, bromodeoxyuridine (BrdU) was added to each well. Incorporation of BrdU was measured at 450 nm (reference=700 nm). Data points represent the mean±S.D. of two independent experiments carried out in quadruplicate.
MDA-231 cells grown in 96-well plates were washed with PBS and cultured in media supplemented with 10% FBS in the presence or absence of either 2 μg/ml or 20 μg/ml GKB for 48 hours. 4 h prior to the end of incubation, bromodeoxyuridine (BrdU) was added to each well. Incorporation of BrdU was measured at 450 nm (reference=700 nm). Data points represent the mean±S.D. of two independent experiments carried out in quadruplicate.
Cell lines were cultured on polystyrene culture dishes (Corning) and grown in Dulbecco's modified Eagle medium (DMEM) supplemented with 10% fetal bovine serum (FBS). […] BrdU Cell Proliferation Assays. MDA-231 cells were plated on 96-well plates (Corning, Corning, N.J.) at a concentration of approximately 10,000 cells/well (24 h incubation) or approximately 5,000 cells/well (48 h incubation) in DMEM supplemented with 0.1% FBS. […] Differences in cell proliferation were analyzed by measuring the amount of 5-bromo-2′deoxyuridine (BrdU) incorporation determined by the BrdU ELISA (Boehringer Mannheim, Indianapolis, Ind.). Incorporation of BrdU was measured at 450 nm (reference at 690 nm).

[5] = test system: MDA-231 cells; assay: Additional cytotoxicity assays; type: cell-based; details: human
Text: It is of interest to note that even in the presence of high concentrations of either EGB 761® or GKB, PBR levels and rates of cell proliferation could not be reduced below 30% of normal values. […] It should be also noted that even at the highest concentrations used, neither EGB 761® nor GKB were toxic for the cells, because cell proliferation recovered upon removal of the compounds.

[6] = test system: MDA-231 cell free radical production; assay: Analysis of oxidative stress (2,7-DCF fluorescent probe) in MDA-231 cells; type: cell-based, human
Text: as §1

[7] = test system: PBR; assay: Immunocytochemistry of MDA-231 tumors with anti-PBR antiserum; type: in vivo, human; details: 50 mg/kg EGB 761® per os or 1 mg/kg GKB ip
Experimental: Formalin embedded sections of MDA-231 xenografts were immunostained with an anti-PBR antiserum at 1:500 dilution as described in the Materials and Methods section. MDA-231 tumors were obtained from animals treated with vehicle (A–D), 50 mg/kg EGB 761® per os (E, G), or 1 mg/kg GKB ip (F, H). […] Arrowheads indicate nuclei. Magnification is ×75 for A, B, C, E, F, G, and H and ×150 for […].
as §1

[8] = test system: PBR mRNA; assay: RNA (Northern) blot analysis of PBR mRNA in MDA-231 cells; type: cell-based, human; details: 48 hours, 20 or 200 μg/ml EGB 761® or 2 or 20 μg/ml GKB
Text: as §1

C[C@@H]1C(=O)O[C@H]2[C@H](O)C34[C@H]5C[C@@H](C(C)(C)C)C36C(O)C(=O)O[C@H]6O[C@@]4(C(=O)O5)[C@@]12O (some centres unmarked) [GKB, ginkgolide B]
decrease of PBR levels (PBR ligand binding capacity, Bmax) [1]: 66% | decrease in tumor size ([2]; 1 mg/kg ip once a day for 30 days, measured a month after the end of the treatment, p=0.043): 32% | animal body weight ([2]; 30 days treatment, 50 mg/kg EGB 761® or 1 mg/kg GKB, data not shown): did not affect | MCF-7 cell proliferation (BrdU incorporation) [3]: altered to a lesser degree | MDA-231 cell proliferation (BrdU incorporation) ([4]; 10% FBS, EGB 761® up to 96 h, GKB 2 or 20 μg/ml 48 hours): significantly altered; also recorded: inhibited | toxicity for the cells (recovery of proliferation upon removal) ([4]; highest concentrations used): cytostatic and not cytotoxic | cell death [5]: neither EGB 761® nor GKB induced any significant cell death | effect on free radical / reactive oxygen species production [6]: absence of any significant decrease | nuclear PBR expression in cells found in the middle of the tumor [7]: reduced | nuclear PBR expression in the cells at the edge of the tumors ([7]; cytosolic immunostaining could be seen): eliminated | PBR mRNA levels [8]: reduced
